# Data published in patent US5733924A, “DC 107 derivatives and treatment methods” (Kyowa Hakko Kogyo Co., Ltd., priority 1995, dated 1998).
# Like-named read-outs stand apart in the source and are kept apart here.
# Columns and labels:
# [1] = system: Enterococcus faecium ATCC 10541; test: Antibacterial activity, agar dilution method (MIC); type: cell-based
# Excerpt: (§1) The antibacterial activity as determined by the agar dilution method using a medium prepared by dissolving 3 g of Bacto-Tryptone (a product of Difco Laboratories), 3 g of a meat extract, 1 g of an yeast extract, 1 g of glucose and 16 g of agar in one liter of water (pH 7).
# EF: Enterococcus faecium ATCC 10541
# [2] = system: Staphylococcus aureus ATCC 6538P; test: Antibacterial activity, agar dilution method (MIC); type: cell-based; conditions: ATCC6538P
# Excerpt: as §1
# SA: Staphylococcus aureus ATCC 6538P
# [3] = system: Bacillus subtilis No. 10707; test: Antibacterial activity, agar dilution method (MIC); type: cell-based
# Excerpt: as §1
# BS: Bacillus subtilis No. 10707
# [4] = system: Klebsiella pneumoniae ATCC 10031; test: Antibacterial activity, agar dilution method (MIC); type: cell-based
# Excerpt: as §1
# KP: Klebsiella pneumoniae ATCC 10031
# [5] = system: Escherichia coli ATCC 26; test: Antibacterial activity, agar dilution method (MIC); type: cell-based
# Excerpt: as §1
# EC: Escherichia coli ATCC 26
# [6] = system: P388 Leukemia; test: Antitumor activity against P388 leukemia in mice (increased life span); type: in vivo, CDF1 mice; conditions: Mus musculus, P388, ip, 720 h
# Method: Ascites were collected from the abdominal cavity of P388 ascites tumor-bearing cancer mice (DBA/2) on the 7th day after transplantation. A number of P388 cells in the ascites was counted, and a tumor cell floating liquid of 5×10^6 cells/ml was prepared using a physiological saline solution. Then, 0.2 ml of the solution containing 1×10^6 cells was transplanted into the abdominal cavity of CDF1 mice having a body weight of from 20 to 25 g.
# The effect of the test compound was determined in terms of the ratio of average survival days of the group administered with the test compound to average survival days of the control group (non-medicated group) (i.e., an increased life span, ILS%).
# [7] = system: various bacteria; conditions: Japanese Published Unexamined Patent Application No. 112988/89; cited from earlier work
# [8] = Japanese Published Unexamined Patent Application No. 112988/89; cited from earlier work
# [9] = Enterococcus faecium, ATCC10541, pH 7, read-out: MIC (minimum growth inhibitory concentration), EF: Enterococcus faecium ATCC 10541
# [10] = Staphylococcus aureus, pH 7, read-out: MIC (minimum growth inhibitory concentration)
# [11] = Bacillus subtilis, NO.10707, pH 7, read-out: MIC (minimum growth inhibitory concentration), BS: Bacillus subtilis No. 10707
# [12] = Klebsiella pneumoniae, ATCC10031, pH 7, read-out: MIC (minimum growth inhibitory concentration)
# [13] = read-out: ILS (increased life span)
# [14] = ATCC10541, EF: Enterococcus faecium ATCC 10541, pH 7, read-out: MIC (minimum growth inhibitory concentration)
# [15] = SA: Staphylococcus aureus ATCC 6538P, agar dilution, pH 7, read-out: MIC (minimum growth inhibitory concentration)
# [16] = BS: Bacillus subtilis No. 10707, pH 7, read-out: MIC (minimum growth inhibitory concentration)
# [17] = ATCC10031, KP: Klebsiella pneumoniae ATCC 10031, agar dilution, pH 7, read-out: MIC (minimum growth inhibitory concentration)
# [18] = ATCC26, EC: Escherichia coli ATCC 26, pH 7, read-out: MIC (minimum growth inhibitory concentration)
# [19] = 2.0 mg/kg, single i.p. 24 hours after transplantation, CDF1 mice, 30 days observation, read-out: ILS (increased life span)
# [20] = single i.p. 24 hours after transplantation, CDF1 mice, 30 days observation, read-out: ILS (increased life span)
# [21] = 4.0 mg/kg, single i.p. 24 hours after transplantation, CDF1 mice, 30 days observation, read-out: ILS (increased life span)
# [22] = single i.p. 24 hours after transplantation, CDF1 mice, 30 days observation
# [23] = Escherichia coli, ATCC26, pH 7, read-out: MIC (minimum growth inhibitory concentration), EC: Escherichia coli ATCC 26
Compound,"MIC [1, 14] [µg/mL]","MIC [2, 15] [µg/mL]","MIC [3, 16] [µg/mL]","MIC [4, 17] [µg/mL]","MIC [5, 18] [µg/mL]",other results
"C/C1=C\C(OC2CCCCO2)C(=O)/C=C/C=C\c2csc(n2)C(C)N2C(=O)CC(C(C)(O)C(=O)SCc3oc(=O)oc3C)(CC1)[S+]2[O-] (single isomer, unassigned) [Compound 63]",–,–,–,–,–,"MIC [1, 9]: 0.65 µg/mL; MIC [2, 10]: 0.65 µg/mL; MIC [3, 11]: 0.081 µg/mL; MIC [4, 12]: 5.2 µg/mL; MIC (minimum growth inhibitory concentration) ([5]; EC: Escherichia coli ATCC 26, pH 7): 21 µg/mL; ILS at 2 mg/kg [6, 13]: 48%"
COC1(OC2C=C(C)CCC3(C(C)(O)C(=O)SCc4oc(=O)oc4C)CC(=O)N(C(C)c4nc(cs4)C=CC=CC2=O)[S+]3[O-])CCOCC1 (centres unmarked) [Compound 122],1.3,0.65,0.16,2.6,42,"ILS at 2 mg/kg [6, 19]: 52%"
CCC(=O)OC1/C=C(\C)CCC2(CC(=O)NC(C)c3nc(cs3)/C=C\C=C\C1=O)[S+]([O-])SC(=O)C2(C)O (centres unmarked) [Compound 2],0.081,0.041,0.33,0.65,1.3,"ILS at 2 mg/kg [6, 19]: 42%"
C/C1=C\C(OC(=O)CNC(=O)OCc2ccccc2)C(=O)/C=C/C=C\c2csc(n2)C(C)NC(=O)CC2(CC1)[S+]([O-])SC(=O)C2(C)O (centres unmarked) [Compound 97],0.041,0.041,0.33,0.81,0.65,"ILS at 8 mg/kg [6, 20]: 54%"
C/C1=C\C(OC(=O)CNC(=O)CNC(=O)OCc2ccccc2)C(=O)/C=C/C=C\c2csc(n2)C(C)NC(=O)CC2(CC1)[S+]([O-])SC(=O)C2(C)O (centres unmarked) [Compound 108],0.081,0.16,0.041,0.33,21,"ILS at 4 mg/kg [6, 21]: 72%"
C/C1=C\C(OC(=O)C2CCCCC2)C(=O)/C=C/C=C\c2csc(n2)C(C)NC(=O)CC2(CC1)[S+]([O-])SC(=O)C2(C)O (centres unmarked) [Compound 6],0.91,0.91,0.028,7.3,3.7,"ILS at 4 mg/kg [6, 13]: 49%"
C/C1=C\C(OC(=O)CNC(=O)CNC(=O)c2ccccc2)C(=O)/C=C/C=C\c2csc(n2)C(C)NC(=O)CC2(CC1)[S+]([O-])SC(=O)C2(C)O (centres unmarked) [Compound 109],0.081,0.081,0.35,0.041,3.2,"ILS at 8 mg/kg [6, 20]: 78%"
C/C1=C\C(OC(=O)CN(C)C(=O)CCNC(=O)OCc2ccccc2)C(=O)/C=C/C=C\c2csc(n2)C(C)NC(=O)CC2(CC1)[S+]([O-])SC(=O)C2(C)O (centres unmarked) [Compound 117],0.23,0.13,0.13,0.057,0.46,"ILS at 16 mg/kg [6, 22]: 73%"
CCOCOC1/C=C(\C)CCC2(C(C)(O)C(=O)SCc3oc(=O)oc3C)CC(=O)N(C(C)c3nc(cs3)/C=C\C=C\C1=O)[S+]2[O-] (centres unmarked) [Compound 59],1.3,1.3,0.65,5.2,21,"ILS at 2 mg/kg [6, 19]: 47%"
C/C1=C\C(OC(=O)CNC=O)C(=O)/C=C/C=C\c2csc(n2)C(C)NC(=O)CC2(CC1)[S+]([O-])SC(=O)C2(C)O (centres unmarked) [Compound 99],0.041,0.041,0.041,0.041,2.6,"ILS at 8 mg/kg [6, 20]: 56%"
C/C1=C\C(O)C(=O)/C=C/C=C\c2csc(n2)C(C)NC(=O)CC2(CC1)[S+]([O-])SC(=O)C2(C)O (centres unmarked) [DC107],–,–,–,–,–,antibacterial activity [7]: exhibits an antibacterial activity against various bacteria; antitumor activity [8]: also an antitumor activity
C/C1=C\C(OC(=O)[C@H](C)NC(=O)OCc2ccccc2)C(=O)/C=C/C=C\c2csc(n2)C(C)NC(=O)CC2(CC1)[S+]([O-])SC(=O)C2(C)O (some centres unmarked) [Compound 103],0.081,42,0.041,1.3,10,"ILS at 4 mg/kg [6, 21]: 52%"
CC1=CC(OC(=O)c2ccccn2)C(=O)C=CC=Cc2csc(n2)C(C)N2C(=O)CC(C(C)(O)C(=O)SCc3oc(=O)oc3C)(CC1)[S+]2[O-] (centres unmarked) [Compound 143],–,–,–,–,–,"MIC [1, 9]: 0.33 µg/mL; MIC [2, 10]: 0.16 µg/mL; MIC [3, 11]: 0.16 µg/mL; MIC [4, 12]: 0.65 µg/mL; MIC [5, 23]: 5.2 µg/mL; ILS at 0.5 mg/kg [6, 13]: 49%"
C/C1=C\C(OC(=O)CNC(=O)CCNC(=O)OCc2ccccc2)C(=O)/C=C/C=C\c2csc(n2)C(C)NC(=O)CC2(CC1)[S+]([O-])SC(=O)C2(C)O (centres unmarked) [Compound 111],0.16,0.33,0.081,0.041,2.6,"ILS at 16 mg/kg [6, 22]: 76%"
CC1=CC(OC(=O)CNC(=O)CCNC(=O)OC(C)(C)C)C(=O)C=CC=Cc2csc(n2)C(C)N2C(=O)CC(C(C)(O)C(=O)SCc3oc(=O)oc3C)(CC1)[S+]2[O-] (centres unmarked) [Compound 170],2.3,2.3,2.3,2.3,75,"ILS at 8 mg/kg [6, 20]: 70%"
CC(=O)NCC(=O)OC1/C=C(\C)CCC2(CC(=O)NC(C)c3nc(cs3)/C=C\C=C\C1=O)[S+]([O-])SC(=O)C2(C)O (centres unmarked) [Compound 100],–,–,–,–,–,"MIC [1, 9]: 0.041 µg/mL; MIC [2, 10]: 0.041 µg/mL; MIC [3, 11]: 0.081 µg/mL; MIC [4, 12]: 0.041 µg/mL; MIC [5, 23]: 2.6 µg/mL; ILS at 4 mg/kg [6, 13]: 66%"
C/C1=C\C(OC(=O)CCCNC(=O)OCc2ccccc2)C(=O)/C=C/C=C\c2csc(n2)C(C)NC(=O)CC2(CC1)[S+]([O-])SC(=O)C2(C)O (centres unmarked) [Compound 106],0.16,0.16,0.041,1.3,10,"ILS at 16 mg/kg [6, 22]: 62%"
C/C1=C\C(OC(=O)CNC(=O)CN(C)C(=O)OCc2ccccc2)C(=O)/C=C/C=C\c2csc(n2)C(C)NC(=O)CC2(CC1)[S+]([O-])SC(=O)C2(C)O (centres unmarked) [Compound 114],0.037,0.037,0.037,1.2,11,"ILS at 4 mg/kg [6, 21]: 70%"
